Source: patent US9328374B2, “Selective culture medium and method for detecting carbapenem-resistant bacteria in a test sample” (Institut National de la Sante et de la Recherche Medicale …, priority 2011, dated 2016)

What was measured:
enterobacterial isolates = assay: MIC of imipenem, ertapenem and meropenem (groups of isolates, other species); format: cell-based, Enterobacteriaceae
S. typhimurium = assay: MIC of imipenem, ertapenem and meropenem; format: cell-based
E. aerogenes = assay: MIC of imipenem, ertapenem and meropenem; format: cell-based, Enterobacter aerogenes
K. pneumoniae = assay: MIC of imipenem, ertapenem and meropenem; format: cell-based, Klebsiella pneumoniae

For `C[C@@H](O)[C@H]1C(=O)N2C(C(=O)O)=C(S[C@@H]3CN[C@H](C(=O)N(C)C)C3)[C@H](C)[C@H]12` [MEM, meropenem], which MIC (enterobacterial isolates; S. marcescens 0911033, IMP-1) is on record?
Its MIC is over 32 µg/mL.

What about the MIC (enterobacterial isolates; S. marcescens 1008091, VIM-1+ CTX-M-15) of the same molecule?
The MIC was over 32 µg/mL.

And the MIC (enterobacterial isolates; S. marcescens C7052, KPC-2 + TEM-1 + SHV-12)?
Its MIC is over 32 µg/mL.

And the MIC (enterobacterial isolates; S. marcescens D6403, KPC-2 + TEM-1)?
The MIC was over 32 µg/mL.

And the MIC (S. typhimurium; S. typhimurium 1081 (CTX-M-1))?
Its MIC is 0.032 µg/mL.

And the MIC (S. typhimurium; S. typhimurium 1081, CTX-M-1, non-carbapenemase producer)?
The MIC was 0.032 µg/mL.

And the MIC (S. typhimurium; strain S. typhimurium 1081, CTX-M-1, non-carbapenemase producer)?
The MIC was 0.032 µg/mL.

What about the MIC (E. aerogenes; E. aerogenes 1009, TEM-24, non-carbapenemase producer) of the same molecule?
Its MIC is 0.016 µg/mL.

What about the MIC (E. aerogenes; E. aerogenes 1085 (TEM-24)) of the same molecule?
The MIC was 0.023 µg/mL.

And the MIC (E. aerogenes; E. aerogenes 1085, TEM-24, non-carbapenemase producer)?
Its MIC is 0.023 µg/mL.

And the MIC (E. aerogenes; strain E. aerogenes 1085, TEM-24, non-carbapenemase producer)?
The MIC was 0.023 µg/mL.

What about the MIC (K. pneumoniae; K. pneumoniae 1 OMA (NDM-1 + CTX-M-15 + OXA-1 + OXA-9)) of the same molecule?
The MIC was over 32 µg/mL.

What about the MIC (K. pneumoniae; K. pneumoniae 2 OLA (NDM-1 + OXA-1)) of the same molecule?
The MIC was 2 µg/mL.

What about the MIC (K. pneumoniae; K. pneumoniae 7 AFR (NDM-1 + OXA-1 + CTX-M-15 + CMY-6 + TEM-1)) of the same molecule?
Its MIC is over 32 µg/mL.

And the MIC (K. pneumoniae; K. pneumoniae 7AFR, NDM-1 + TEM-1 + CTX-M-15 + CMY-6 + OXA-1)?
The MIC was over 32 µg/mL.

What about the MIC (K. pneumoniae; K. pneumoniae 0227, SHV-1, non-carbapenemase producer) of the same molecule?
The MIC was 0.016 µg/mL.

And the MIC (K. pneumoniae; K. pneumoniae 588, KPC-2 + TEM-1 + SHV-11 + OXA-9)?
Its MIC is 16 µg/mL.

And the MIC (K. pneumoniae; K. pneumoniae 1022, SHV-2a + SHV-28, non-carbapenemase producer)?
Its MIC is 0.023 µg/mL.

And the MIC (K. pneumoniae; K. pneumoniae 1025 (CTX-M-14 + TEM-1 + SHV-11))?
Its MIC is 0.016 µg/mL.

And the MIC (K. pneumoniae; K. pneumoniae 1025, CTX-M-14 + TEM-1 + SHV-11, non-carbapenemase producer)?
Its MIC is 0.016 µg/mL.

What about the MIC (K. pneumoniae; K. pneumoniae 2303, KPC-2 + SHV-11) of the same molecule?
Its MIC is over 32 µg/mL.

What about the MIC (K. pneumoniae; K. pneumoniae 6642 GEN (NDM-1 + CTX-M-15 + OXA-1 + OXA-10)) of the same molecule?
The MIC was 3 µg/mL.

And the MIC (K. pneumoniae; K. pneumoniae 6642 GEN, NDM-1 + CTX-M-15 + OXA-1 + OXA-10)?
The MIC was 3 µg/mL.

What about the MIC (K. pneumoniae; K. pneumoniae 6759 GEN (NDM-1 + CTX-M-15 + OXA-1 + OXA-9 + OXA-10 + CMY16)) of the same molecule?
The MIC was over 32 µg/mL.

And the MIC (K. pneumoniae; K. pneumoniae 6759 GEN, NDM-1 + CTX-M-15 + CMY-16 + OXA-1 + OXA-9 + OXA-10)?
Its MIC is over 32 µg/mL.

And the MIC (K. pneumoniae; K. pneumoniae 7725 (SHV-1))?
The MIC was 0.032 µg/mL.

And the MIC (K. pneumoniae; K. pneumoniae 7725, SHV-1, non-carbapenemase producer)?
The MIC was 0.032 µg/mL.

And the MIC (K. pneumoniae; K. pneumoniae 10112, CTX-M-15 + TEM-1 + SHV-11, non-carbapenemase producer)?
The MIC was 0.023 µg/mL.

What about the MIC (K. pneumoniae; K. pneumoniae 0404020, VIM-1+ SHV-5) of the same molecule?
Its MIC is over 32 µg/mL.

And the MIC (K. pneumoniae; K. pneumoniae 0404024, VIM-1)?
Its MIC is over 32 µg/mL.

And the MIC (K. pneumoniae; K. pneumoniae 0511135, VIM-1+ SHV-12)?
Its MIC is over 32 µg/mL.

What about the MIC (K. pneumoniae; K. pneumoniae 648236 (SHV-2a)) of the same molecule?
The MIC was 0.38 µg/mL.

And the MIC (K. pneumoniae; K. pneumoniae 648236, SHV-2a, non-carbapenemase producer, porin deficiency)?
Its MIC is 0.38 µg/mL.

And the MIC (K. pneumoniae; K. pneumoniae 0709121, IMP-1)?
The MIC was 1 µg/mL.

And the MIC (K. pneumoniae; K. pneumoniae 0709124, IMP-1 + TEM-15)?
The MIC was 2 µg/mL.

What about the MIC (K. pneumoniae; K. pneumoniae 0709125, IMP-1 + TEM-1 + SHV-12) of the same molecule?
Its MIC is 2 µg/mL.

And the MIC (K. pneumoniae; K. pneumoniae 0709127, IMP-1 + TEM-1)?
Its MIC is 1 µg/mL.

What about the MIC (K. pneumoniae; K. pneumoniae A28006, KPC-2 + TEM-1 + CTX-M-2 + SHV-11) of the same molecule?
Its MIC is 32 µg/mL.

What about the MIC (K. pneumoniae; K. pneumoniae A33504, KPC-2 + TEM-1 + SHV-11 + CTX-M-2 + OXA-9) of the same molecule?
Its MIC is over 32 µg/mL.

What about the MIC (K. pneumoniae; K. pneumoniae AEL, OXA-48 + CTX-M-15 + SHV-28 + OXA-1) of the same molecule?
The MIC was 0.38 µg/mL.

And the MIC (K. pneumoniae; K. pneumoniae ALE (CTX-M-15 + SHV-1))?
Its MIC is 4 µg/mL.

What about the MIC (K. pneumoniae; K. pneumoniae ALE, CTX-M-15 + SHV-1, non-carbapenemase producer, porin deficiency) of the same molecule?
The MIC was 4 µg/mL.

What about the MIC (K. pneumoniae; K. pneumoniae AMS (OXA-48 + TEM-1 + CTX-M-15 + OXA-1)) of the same molecule?
The MIC was 0.38 µg/mL.

And the MIC (K. pneumoniae; K. pneumoniae AMS, OXA-48 + TEM-1 + CTX-M-15 + OXA-1)?
Its MIC is 0.38 µg/mL.

And the MIC (K. pneumoniae; K. pneumoniae BAJ (OXA-48 + TEM-1 + CTX-M-15 + SHV-28))?
The MIC was 0.38 µg/mL.

What about the MIC (K. pneumoniae; K. pneumoniae BAJ, OXA-48 + TEM-1 + CTX-M-15 + SHV-28) of the same molecule?
Its MIC is 0.38 µg/mL.

What about the MIC (K. pneumoniae; K. pneumoniae BED (CTX-M-15 + TEM-1 + SHV-1; Table 8: SHV-11)) of the same molecule?
Its MIC is 4 µg/mL.

And the MIC (K. pneumoniae; K. pneumoniae BED, CTX-M-15 + TEM-1 + SHV-11, non-carbapenemase producer, porin deficiency)?
Its MIC is 4 µg/mL.

What about the MIC (K. pneumoniae; K. pneumoniae BEL (OXA-48)) of the same molecule?
The MIC was 1 µg/mL.

And the MIC (K. pneumoniae; K. pneumoniae BEL, OXA-48)?
Its MIC is 1 µg/mL.

And the MIC (K. pneumoniae; K. pneumoniae BEN (OXA-48 + TEM-1 + CTX-M-15 + SHV-28))?
The MIC was 0.25 µg/mL.

What about the MIC (K. pneumoniae; K. pneumoniae BEN, OXA-48 + TEM-1 + CTX-M-15 + SHV-28) of the same molecule?
Its MIC is 0.25 µg/mL.

And the MIC (K. pneumoniae; K. pneumoniae BER (TEM-1 + SHV-28))?
The MIC was 1 µg/mL.

And the MIC (K. pneumoniae; K. pneumoniae BER, SHV-28 + TEM-1, non-carbapenemase producer, porin deficiency)?
The MIC was 1 µg/mL.

What about the MIC (K. pneumoniae; K. pneumoniae BEY (OXA-48 + CTX-M-15 + TEM-1)) of the same molecule?
Its MIC is 0.38 µg/mL.

What about the MIC (K. pneumoniae; K. pneumoniae BEY, OXA-48 + TEM-1 + CTX-M-15) of the same molecule?
Its MIC is 0.38 µg/mL.

What about the MIC (K. pneumoniae; K. pneumoniae BIC (OXA-48)) of the same molecule?
The MIC was 0.5 µg/mL.

What about the MIC (K. pneumoniae; K. pneumoniae BIC, OXA-48) of the same molecule?
The MIC was 0.5 µg/mL.

And the MIC (K. pneumoniae; K. pneumoniae BOU, OXA-48)?
The MIC was 0.25 µg/mL.

What about the MIC (K. pneumoniae; K. pneumoniae CHA (OXA-48 + TEM-1)) of the same molecule?
The MIC was 0.5 µg/mL.

What about the MIC (K. pneumoniae; K. pneumoniae CHA, OXA-48 + TEM-1) of the same molecule?
Its MIC is 0.5 µg/mL.

And the MIC (K. pneumoniae; K. pneumoniae COL (KPC-2 + TEM-1 + SHV-1 + CTX-M-15))?
Its MIC is 32 µg/mL.

What about the MIC (K. pneumoniae; K. pneumoniae COO (CTX-M-15 + SHV28)) of the same molecule?
Its MIC is 4 µg/mL.

And the MIC (K. pneumoniae; K. pneumoniae COO, CTX-M-15 + SHV-28, non-carbapenemase producer, porin deficiency)?
The MIC was 4 µg/mL.

And the MIC (K. pneumoniae; K. pneumoniae DAL (OXA-48 + CTX-M-15 + TEM-1))?
The MIC was 0.38 µg/mL.

What about the MIC (K. pneumoniae; K. pneumoniae DAL, OXA-48 + TEM-1 + CTX-M-15) of the same molecule?
The MIC was 0.38 µg/mL.

And the MIC (K. pneumoniae; K. pneumoniae DIA, OXA-48 + TEM-1b + CTX-M-15 + SHV-11 + OXA-1)?
The MIC was over 32 µg/mL.

What about the MIC (K. pneumoniae; K. pneumoniae DUW, OXA-48 + TEM-1 + CTX-M-15 + SHV-28) of the same molecule?
The MIC was 32 µg/mL.

And the MIC (K. pneumoniae; K. pneumoniae EGY (OXA-48 + CTX-M-15))?
The MIC was 2 µg/mL.

And the MIC (K. pneumoniae; K. pneumoniae EGY, OXA-48 + CTX-M-15)?
The MIC was 2 µg/mL.

What about the MIC (K. pneumoniae; K. pneumoniae ELK (OXA-48 + TEM-1 + CTX-M-15 + SHV-11)) of the same molecule?
The MIC was 0.38 µg/mL.

What about the MIC (K. pneumoniae; K. pneumoniae ELK, OXA-48 + TEM-1 + CTX-M-15 + SHV-11) of the same molecule?
The MIC was 0.38 µg/mL.

And the MIC (K. pneumoniae; K. pneumoniae ENN, VIM-1+ SHV-5)?
The MIC was 0.38 µg/mL.

And the MIC (K. pneumoniae; K. pneumoniae FOS (CTX-M-15 + TEM-1 + SHV-11))?
Its MIC is over 32 µg/mL.

What about the MIC (K. pneumoniae; K. pneumoniae FOS, CTX-M-15 + TEM-1 + SHV-11, non-carbapenemase producer, porin deficiency) of the same molecule?
Its MIC is over 32 µg/mL.

And the MIC (K. pneumoniae; K. pneumoniae GES, KPC-2 + TEM-1 + SHV-11)?
Its MIC is 1.5 µg/mL.

What about the MIC (K. pneumoniae; K. pneumoniae HOL (OXA-181 + CTX-M-15)) of the same molecule?
The MIC was 1 µg/mL.

What about the MIC (K. pneumoniae; K. pneumoniae HOL, OXA-181 + CTX-M-15) of the same molecule?
Its MIC is 1 µg/mL.

What about the MIC (K. pneumoniae; K. pneumoniae HPA, OXA-48 + TEM-1 + CTX-M-15 + OXA-1) of the same molecule?
The MIC was 12 µg/mL.

What about the MIC (K. pneumoniae; K. pneumoniae IND (NDM-1 + OXA-1 + CTX-M-15)) of the same molecule?
Its MIC is 4 µg/mL.

And the MIC (K. pneumoniae; K. pneumoniae KAM, KPC-3 + TEM-1 + SHV-11)?
The MIC was 2 µg/mL.

What about the MIC (K. pneumoniae; K. pneumoniae KDH (DHA-2)) of the same molecule?
The MIC was 0.12 µg/mL.

And the MIC (K. pneumoniae; K. pneumoniae KDH, DHA-2, non-carbapenemase producer, overexpressed AmpC)?
Its MIC is 0.12 µg/mL.
